# Test results taken from patent publication US20050208542A1, “Methods of genotoxicity screening, and biosensors” (priority 2004, published 2005).
# How the values were obtained:
# ds-DNA [1] = assay: Catalytic SWV with Ru(bpy)3^2+ of PDDA/ds-DNA(/Mb/ds-DNA)2 films after incubation; type: biochemical, calf thymus (CT), salmon testes (ST)
# ds-DNA [2] = assay: SWV with Co(bpy)3^3+ electroactive probe, PDDA/ds-DNA(/Mb/ds-DNA)2 films; type: biochemical, calf thymus (CT), salmon testes (ST)
# Experimental: (§2) Film construction. Films were grown on PG disks (pyrolytic graphite) that had been abraded on 400 grit SiC paper, then with coarse Emery paper (3M Crystal Bay), then ultrasonicated in water for 30 seconds. Layers of ds-DNA and protein were adsorbed alternately for 15 minutes onto the rough PG electrodes, and washed with water between adsorption steps. Adsorbate solutions were: (a) 2 mg mL^−1 DNA in 5 mM pH 7.1 TRIS buffer and 0.50 M NaCl; (b) 2 mg mL^−1 PDDA in 50 mM NaCl; (c) 3 mg mL^−1 Mb in 10 mM pH 5.5 acetate buffer; and (d) 1 mg mL^−1 cyt P450cam in the pH 5.5 buffer. Film of architecture denoted PDDA/DNA(/Mb/DNA)2 or PDDA/DNA(/cyt P450cam/DNA)2 were employed.
# (§3) Incubation of DNA/protein films for metabolite generation and reaction with DNA was done in a thermostated vessel at 37° C. containing 1-4% styrene (by volume). To activate the enzymes for styrene oxide formation, 0.2 to 2 mM H2O2 was added to 10 mL pH 5.5 buffer containing 50 mM NaCl. […] For the probe binding method, washed electrodes were transferred to pH 5.5 buffer containing 20 μM Co(bpy)3^3+.
# (§4) Voltammetry. CH Instruments 660A and CH 430 electrochemical analyzers were used for square wave voltammetry (SWV), with ˜95% ohmic drop compensated. […]
# (§5) The time course of the reaction can readily be monitored via the ratio of initial SWV peak current for a given film (Ip,i) to that after reaction (Ip,f). […]
# CT-ds-DNA = assay: SWV of Ru/Mb/DNA films (PSS/ClRu-PVP/CT-ds-DNA/(Mb/CT-ds-DNA)2) after incubation; conditions: for SWV peak current at 0.75 V: saturated styrene or toluene and H2O2, pH 5.5
# Experimental: Film Assembly. Basal plane PG electrodes were polished with 400-grit SiC paper and then ultrasonicated for 30 seconds each in ethanol and then in water. Electrodes were dried in nitrogen and dipped into 6 mg mL^−1 PSS containing 0.5 M NaCl for 15 min. After washing with water, these PG electrodes were then dipped into 0.05% (m/V) [Ru(bpy)2(PVP)10Cl)]Cl (denoted hereafter as CIRu-PVP) in 5% ethanol/water for 15 minutes. Adsorption for 15 min provides steady-state adsorption of PSS on oppositely charged surfaces.^18, 19
# After fabricating PSS/CIRu-PVP films, electrodes were dipped into 2 mg mL^−1 CT ds-DNA in pH 7.0 Tris buffer containing 0.5 M NaCl for 15 min, rinsed with water, and then dipped into 2 mg mL^−1 PDDA. Alternate adsorption cycles were repeated until the desired number of layers were made. Final film structure is denoted as PSS/CIRu-PVP/CT-ds-DNA/PDDA/CT-ds-DNA.
# For films containing Mb, PG electrodes were abraded with 400-grit SiC paper, rinsed with water, further roughened using medium Crystal Bay emery paper (PH4 3M 001K), and then ultrasonicted in ethanol and water successively for 30 seconds. […] Additional steps were the same as above except PDDA was replaced with 3 mg mL^−1 Mb in pH 5.5 buffer. Final film structure is denoted as PSS/CIRu-PVP/CT-ds-DNA/(Mb/CT-ds-DNA)2. Electrochemical surface area was estimated at 0.21 cm^2 using peak currents of soluble ferricyanide and the Randles-Sevcik equation.
# H2O2 activates Mb to oxidize styrene to styrene oxide.
# ST-ds-DNA = assay: Catalytic SWV with Ru(bpy)3^2+ of DNA(Cyt P450cam/ST-ds-DNA)2 films after incubation
# Experimental: as §2
# Incubation of DNA/protein films for metabolite generation and reaction with DNA was done in a thermostated vessel at 37° C. containing 1-4% styrene (by volume). To activate the enzymes for styrene oxide formation, 0.2 to 2 mM H2O2 was added to 10 mL pH 5.5 buffer containing 50 mM NaCl. After incubation, the electrodes were rinsed with water and transferred to pH 5.5 buffer containing 50 μM Ru(bpy)3^2+ for analysis by catalytic SWV.
# as §4
# ds-CT-DNA = assay: SWV with Co(bpy)3^3+ electroactive probe, PDDA/ds-CT-DNA(cyt P450cam/ds-CT-DNA)2 films; conditions: 4% styrene + 2 mM H2O2
# Experimental: as §2, §3
# CH Instruments 660A and CH 430 electrochemical analyzers were used for square wave voltammetry (SWV), with ˜95% ohmic drop compensated. […]
# as §5
# ST ds-DNA = assay: Capillary electrophoretic analysis of hydrolyzed DNA reacted with styrene oxide; type: biochemical, salmon testes; conditions: (PDDA/DNA)2 film on carbon cloth, saturated styrene oxide, 48 hr, 37° C., compared with undamaged hydrolyzed DNA
# Experimental: (§1) Capillary electrophoretic analysis. A Beckman PACE 5000 with UV detector at 254 nm was used for capillary electrophoresis (CE) to analyze hydrolyzed DNA that had been reacted with styrene oxide. 1 mg mL^−1 ST ds-DNA in 50 mL buffer or (PDDA/DNA)2 films on 3×10 cm carbon cloth in solution were reacted in 50 mL buffer and 0.87 mmol styrene oxide at 37° C. with stirring. Reacted DNA in solution or in films was hydrolyzed by incubating with deoxyribonuclease I (0.1 mg per mg of DNA) for 20 hr at 37° C., followed by incubation with phosphodiesterase I (0.01 unit/mg DNA) and phosphatase, alkaline (0.6 unit/mg DNA) for 5 hours at 37° C. The resulting samples, consisting mainly of individual nucleosides, were analyzed using CE with 20 mM pH 7 phosphate buffer and 100 mM SDS. The capillary was 75 μm×50 cm, with a polyimide coating. To make standard styrene oxide adducts, 0.5 mg mL^−1 guanosine or adenosine were reacted with styrene oxide.
# It was previously shown that that styrene oxide is formed from styrene using Mb and cyt P450cam films. However, available capillary electrophoresis and HPLC-MS/MS methods were not sensitive enough to detect and identify damaged DNA directly from the protein-DNA films. Thus, capillary electrophoresis and HPLC-MS were used to confirm that reaction of styrene oxide with DNA in (PDDA/DNA)2 films and in solution gave the reported DNA-styrene oxide adducts. […]
# ds-ST-DNA = assay: HPLC-MS/MS of hydrolyzed DNA reacted with styrene oxide; type: biochemical, salmon testes; conditions: ds-ST-DNA incubated with styrene oxide 48 hours at 37° C., HPLC-MS/MS (MRM)
# Experimental: as §1
# Liquid chromatography (LC)-mass spectrometry (MS). A Perkin-Elmer LC with diode-array (255 nm and 280 nm) and mass spectrometer (Micromass, Quattro II) detection were used. Full-scan spectra were taken at low cone voltage (15 V) in the positive ion mode (ESI). The HPLC column was Restek Ultra C-18 reversed-phase (i. d. 2.1 mm, length 10 cm, particle size 5 μm). Solvents were A: 5% acetonitrile/95% water with 0.05% TFA and B: 100% acetonitrile with 0.05% TFA. […]
# ds-CT DNA = assay: ECL/SWV of (Ru-PVP/ds-DNA)2 films after incubation; conditions: saturated solution, 37° C., pH 5.5
# Experimental: Film assembly. DNA-redox polymer films were constructed by the layer-by-layer electrostatic assembly method. Basal plane PG electrodes were polished with 400 grit SiC paper and then with 0.3 μm α-alumina slurries on Buehler Microcloth, washed with water, sonicated in ethanol for 15 minutes, and then sonicated in water for 15 minutes. Layers were constructed by placing a 30 μL drop of 0.2% aqueous [Ru(bpy)2(PVP)10](CIO4)2 onto each PG electrode, allowing 15 minutes to achieve saturated adsorption and then washing with water. Subsequently, 30 μL of DNA solution (2 mg mL^−1 DNA in 5 mM pH 5.5 acetate buffer+0.05 M NaCl) was place on this PG surface, allowed to adsorb 15 min, and then washed with water. This sequence was repeated to obtain films with 2 redox polymer/DNA bilayers. Films containing ss-DNA and other polynucleotides were also assembled in this way. Assembly of films was monitored at each step with a quartz crystal microbalance.
# Reactions with Styrene Oxide. Incubations of films were done in styrene oxide solutions in a stirred reactor at 37.0±0.5° C. […] PG electrodes coated with polynucleotide or DNA films were incubated in the stirred emulsion and then rinsed with water and transferred to the electro-chemical cell containing pH 5.5 buffer for SWV/ECL analysis.
# Error bars in FIGS. 22, 23 are mainly the result of electrode-to-electrode variability.
# poly[G] = assay: ECL/SWV of (Ru-PVP/poly[G])2 films after incubation; type: biochemical; conditions: 10 minutes incubation, saturated solution
# Experimental: Reactions with Styrene Oxide.
# In addition to catalytic oxidation of guanines, it is possible that adducts formed on DNA by reaction with styrene oxide could be catalytically oxidized by the ruthenium metallopolymer. To assess this possibility, styrene oxide was incubated with films containing individual polynucleotides and the metallopolymer. […] An 80% increase in SWV peak current and a 40% increase in ECL intensity was found.
compound,measurement,setting,value
C=Cc1ccccc1 [styrene],Dependence of catalytic SWV peak height on styrene concentration,"ds-DNA [1]; Mb/DNA films activated by H2O2, styrene 1-4%",did not depend on styrene concentration between 1-4%
same,Catalytic SWV oxidation peak current (DNA damage),"ds-DNA [1]; Mb/DNA films, 37° C., pH 5.5, with 0.2 mM H2O2, 2% styrene, 2% toluene or 0.2 mM benzaldehyde, read in 50 μM Ru(bpy)3^2+",increased with reaction time
same,Catalytic SWV oxidation peak current (DNA damage),"ds-DNA [1]; ST-DNA/Mb films, 2% styrene but no H2O2",No significant increases in peak current or trends with incubation time
same,"Ip,i/Ip,f peak current ratio vs. reaction time","ds-DNA [2]; Mb films, 4% styrene or 4% toluene + 2 mM hydrogen peroxide, over 45 min",linear increases
same,SWV peak height for reduction of Co(bpy)3^3+ at 0.04 V vs. SCE,"ds-DNA [2]; Mb/ST-ds-DNA films, 4% styrene and 2 mM H2O2, 37° C., pH 5.5, 20 μM Co(bpy)3^3+",decreased with incubation time
same,Ratio of final peak current after incubation to initial peak current,"CT-ds-DNA; saturated styrene and H2O2, pH 5.5",showed an increase over the first 15 minutes and then decreased gradually
same,SWV peak current at 0.75 V,CT-ds-DNA,increased
same,"Rate of increase of SWV peak current, less than with Mb/ST-DNA films","ST-ds-DNA; cyt P450cam films versus Mb/ST-DNA films, styrene and hydrogen peroxide",about 30%
same,SWV catalytic peak current (DNA damage),"ST-ds-DNA; cyt P450cam/ST-ds-DNA films, 2% styrene + 0.2 mM H2O2, 50 μM Ru(bpy)3^2+",rapid increase in SWV peak current for the first five minutes was followed by a slower increase from 5-30 minutes
same,"Slope of Ip,i/Ip,f peak ratio vs. time, compared with Mb films",ds-CT-DNA,smaller slopes
c1ccc(C2CO2)cc1 (stereo not drawn) [styrene oxide],DNA-styrene oxide adduct peaks in capillary electropherogram,ST ds-DNA,new peaks evident
same,Number of styrene oxide adducts each for dA and dG,ds-ST-DNA,at least 4
same,ECL peak vs. incubation time,ds-CT DNA,increases in the ECL and the SWV peaks were observed with increasing incubation time
same,SWV peak vs. incubation time,ds-CT DNA,increases in the ECL and the SWV peaks were observed with increasing incubation time
same,Increase in ECL intensity,poly[G],40%
same,Increase in SWV peak current,poly[G],80%
Cc1ccccc1 [toluene],ECL peak vs. incubation time,ds-CT DNA,showed no trends with incubation time
same,SWV peak vs. incubation time,ds-CT DNA,showed no trends with incubation time
same,Increase in ECL intensity,poly[G],nearly identical to initial values
same,Increase in SWV peak current,poly[G],nearly identical to initial values
same,SWV peak current at 0.75 V,CT-ds-DNA,did not show increases
